# Reference: the kinase profiling compilation of Christmann-Franck et al. (2016)
# Legend:
# Test in all cases: KINOMEscan competition binding
# Settings in all cases: compound 10.0 µM; call rule not given here
# [1] = biological target: AAK1 (human) (UniProt Q2M2I8)
# [2] = biological target: AURKB (human) (UniProt Q96GD4)
# [3] = biological target: BLK (human) (UniProt P51451)
# [4] = biological target: BMP2K (human) (UniProt Q9NSY1)
# [5] = biological target: BMX (human) (UniProt P51813)
# [6] = biological target: BRSK2 (human) (UniProt Q8IWQ3)
# [7] = biological target: CAMK2A (human) (UniProt Q9UQM7)
# [8] = biological target: CLK2 (human) (UniProt P49760)
# [9] = biological target: CSNK1A1L (human) (UniProt Q8N752)
# [10] = biological target: CSNK1D (human) (UniProt P48730)
# [11] = biological target: CSNK1G1 (human) (UniProt Q9HCP0)
# [12] = biological target: CSNK1G2 (human) (UniProt P78368)
# [13] = test system: EIF2AK4 KD2 (human), Q9P2K8 [S808G]
# [14] = biological target: EPHA2 (human) (UniProt P29317)
# [15] = biological target: EPHA3 (human) (UniProt P29320)
# [16] = biological target: FER (human) (UniProt P16591)
# [17] = biological target: FLT1 (human) (UniProt P17948)
# [18] = biological target: FLT3 (human) (UniProt P36888)
# [19] = biological target: FRK (human) (UniProt P42685)
# [20] = biological target: GSK3A (human) (UniProt P49840)
# [21] = biological target: HCK (human) (UniProt P08631)
# [22] = biological target: ITK (human) (UniProt Q08881)
# [23] = biological target: MET (human) (UniProt P08581)
# [24] = biological target: MYLK2 (human) (UniProt Q9H1R3)
# [25] = biological target: NTRK3 (human) (UniProt Q16288)
# [26] = biological target: PDGFRA (human) (UniProt P16234)
# [27] = biological target: PKN2 (human) (UniProt Q16513)
# [28] = biological target: PLK4 (human) (UniProt O00444)
# [29] = biological target: PRKAA1 (human) (UniProt Q13131)
# [30] = biological target: RET (human) (UniProt P07949)
# [31] = biological target: SIK2 (human) (UniProt Q9H0K1)
# [32] = biological target: SRC (human) (UniProt P12931)
# [33] = biological target: SRPK1 (human) (UniProt Q96SB4)
# [34] = biological target: STK11 (human) (UniProt Q15831)
# [35] = biological target: STK3 (human) (UniProt Q13188)
# [36] = biological target: STK38L (human) (UniProt Q9Y2H1)
# [37] = biological target: TESK1 (human) (UniProt Q15569)
# [38] = biological target: TLK1 (human) (UniProt Q9UKI8)
# [39] = biological target: TNK1 (human) (UniProt Q13470)
# [40] = biological target: TNK2 (human) (UniProt Q07912)
# [41] = biological target: TYK2 JH1 catalytic (human) (UniProt P29597)
# Sequence of CAMK2A (human) (Q9UQM7 whole entry, looked up): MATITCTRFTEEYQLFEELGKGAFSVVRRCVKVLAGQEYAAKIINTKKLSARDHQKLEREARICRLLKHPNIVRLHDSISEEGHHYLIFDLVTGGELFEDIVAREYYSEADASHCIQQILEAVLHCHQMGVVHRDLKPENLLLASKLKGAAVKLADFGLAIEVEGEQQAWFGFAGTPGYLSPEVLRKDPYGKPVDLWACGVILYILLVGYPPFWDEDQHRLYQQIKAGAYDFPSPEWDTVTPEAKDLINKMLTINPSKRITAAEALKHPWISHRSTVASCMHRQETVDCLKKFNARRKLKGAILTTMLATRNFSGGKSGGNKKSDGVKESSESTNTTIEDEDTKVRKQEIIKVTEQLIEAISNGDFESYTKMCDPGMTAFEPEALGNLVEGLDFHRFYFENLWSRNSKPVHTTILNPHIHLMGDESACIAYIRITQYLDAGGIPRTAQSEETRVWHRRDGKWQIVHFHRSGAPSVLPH
# Sequence of PKN2 (human) (Q16513 whole entry, looked up): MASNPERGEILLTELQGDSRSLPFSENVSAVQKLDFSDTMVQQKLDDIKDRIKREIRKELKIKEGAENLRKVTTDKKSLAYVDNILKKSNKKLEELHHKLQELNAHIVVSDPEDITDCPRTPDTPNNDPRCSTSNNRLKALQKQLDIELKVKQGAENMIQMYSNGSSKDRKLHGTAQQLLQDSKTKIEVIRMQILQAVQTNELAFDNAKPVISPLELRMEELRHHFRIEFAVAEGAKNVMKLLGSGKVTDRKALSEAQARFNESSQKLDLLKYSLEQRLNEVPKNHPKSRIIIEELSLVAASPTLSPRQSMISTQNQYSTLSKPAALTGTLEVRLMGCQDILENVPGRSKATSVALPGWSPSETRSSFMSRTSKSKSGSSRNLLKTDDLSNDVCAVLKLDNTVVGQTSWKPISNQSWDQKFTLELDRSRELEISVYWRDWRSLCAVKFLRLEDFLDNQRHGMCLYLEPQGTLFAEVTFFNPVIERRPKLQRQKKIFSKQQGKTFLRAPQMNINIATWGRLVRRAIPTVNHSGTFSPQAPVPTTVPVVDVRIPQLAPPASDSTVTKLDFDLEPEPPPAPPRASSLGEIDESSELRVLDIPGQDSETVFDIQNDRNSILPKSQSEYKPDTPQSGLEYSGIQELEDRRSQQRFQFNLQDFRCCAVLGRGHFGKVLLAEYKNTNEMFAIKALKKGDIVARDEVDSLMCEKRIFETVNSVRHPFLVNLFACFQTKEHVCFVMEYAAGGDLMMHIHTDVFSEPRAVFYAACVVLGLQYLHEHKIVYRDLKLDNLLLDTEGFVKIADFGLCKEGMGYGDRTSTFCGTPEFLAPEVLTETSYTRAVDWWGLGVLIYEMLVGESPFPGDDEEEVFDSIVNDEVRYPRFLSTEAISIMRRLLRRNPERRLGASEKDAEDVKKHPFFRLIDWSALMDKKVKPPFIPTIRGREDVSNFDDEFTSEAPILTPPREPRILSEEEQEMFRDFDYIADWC
# Sequence of FER (human) (P16591 whole entry, looked up): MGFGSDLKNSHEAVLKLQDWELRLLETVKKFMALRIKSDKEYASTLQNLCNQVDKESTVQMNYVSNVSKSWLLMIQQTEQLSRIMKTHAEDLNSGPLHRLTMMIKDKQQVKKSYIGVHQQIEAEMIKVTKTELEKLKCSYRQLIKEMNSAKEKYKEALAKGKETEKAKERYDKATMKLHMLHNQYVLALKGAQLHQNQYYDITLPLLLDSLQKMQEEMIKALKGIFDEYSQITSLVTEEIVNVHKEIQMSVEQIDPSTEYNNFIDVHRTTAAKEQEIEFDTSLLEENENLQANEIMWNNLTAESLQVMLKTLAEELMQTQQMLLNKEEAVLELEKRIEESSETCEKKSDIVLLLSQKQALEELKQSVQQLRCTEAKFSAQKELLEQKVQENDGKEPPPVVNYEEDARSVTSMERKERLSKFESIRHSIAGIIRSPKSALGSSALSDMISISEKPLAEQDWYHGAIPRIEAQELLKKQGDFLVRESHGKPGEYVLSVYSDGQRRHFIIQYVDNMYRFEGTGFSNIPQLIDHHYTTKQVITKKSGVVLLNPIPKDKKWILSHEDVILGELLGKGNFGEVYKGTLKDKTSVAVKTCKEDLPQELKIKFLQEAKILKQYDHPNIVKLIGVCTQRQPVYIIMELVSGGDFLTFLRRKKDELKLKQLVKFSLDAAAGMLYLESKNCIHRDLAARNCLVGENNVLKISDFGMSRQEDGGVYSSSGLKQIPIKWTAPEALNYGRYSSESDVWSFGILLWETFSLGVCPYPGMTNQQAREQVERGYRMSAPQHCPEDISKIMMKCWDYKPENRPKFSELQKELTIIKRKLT
# Sequence of FLT1 (human) (P17948 whole entry, looked up): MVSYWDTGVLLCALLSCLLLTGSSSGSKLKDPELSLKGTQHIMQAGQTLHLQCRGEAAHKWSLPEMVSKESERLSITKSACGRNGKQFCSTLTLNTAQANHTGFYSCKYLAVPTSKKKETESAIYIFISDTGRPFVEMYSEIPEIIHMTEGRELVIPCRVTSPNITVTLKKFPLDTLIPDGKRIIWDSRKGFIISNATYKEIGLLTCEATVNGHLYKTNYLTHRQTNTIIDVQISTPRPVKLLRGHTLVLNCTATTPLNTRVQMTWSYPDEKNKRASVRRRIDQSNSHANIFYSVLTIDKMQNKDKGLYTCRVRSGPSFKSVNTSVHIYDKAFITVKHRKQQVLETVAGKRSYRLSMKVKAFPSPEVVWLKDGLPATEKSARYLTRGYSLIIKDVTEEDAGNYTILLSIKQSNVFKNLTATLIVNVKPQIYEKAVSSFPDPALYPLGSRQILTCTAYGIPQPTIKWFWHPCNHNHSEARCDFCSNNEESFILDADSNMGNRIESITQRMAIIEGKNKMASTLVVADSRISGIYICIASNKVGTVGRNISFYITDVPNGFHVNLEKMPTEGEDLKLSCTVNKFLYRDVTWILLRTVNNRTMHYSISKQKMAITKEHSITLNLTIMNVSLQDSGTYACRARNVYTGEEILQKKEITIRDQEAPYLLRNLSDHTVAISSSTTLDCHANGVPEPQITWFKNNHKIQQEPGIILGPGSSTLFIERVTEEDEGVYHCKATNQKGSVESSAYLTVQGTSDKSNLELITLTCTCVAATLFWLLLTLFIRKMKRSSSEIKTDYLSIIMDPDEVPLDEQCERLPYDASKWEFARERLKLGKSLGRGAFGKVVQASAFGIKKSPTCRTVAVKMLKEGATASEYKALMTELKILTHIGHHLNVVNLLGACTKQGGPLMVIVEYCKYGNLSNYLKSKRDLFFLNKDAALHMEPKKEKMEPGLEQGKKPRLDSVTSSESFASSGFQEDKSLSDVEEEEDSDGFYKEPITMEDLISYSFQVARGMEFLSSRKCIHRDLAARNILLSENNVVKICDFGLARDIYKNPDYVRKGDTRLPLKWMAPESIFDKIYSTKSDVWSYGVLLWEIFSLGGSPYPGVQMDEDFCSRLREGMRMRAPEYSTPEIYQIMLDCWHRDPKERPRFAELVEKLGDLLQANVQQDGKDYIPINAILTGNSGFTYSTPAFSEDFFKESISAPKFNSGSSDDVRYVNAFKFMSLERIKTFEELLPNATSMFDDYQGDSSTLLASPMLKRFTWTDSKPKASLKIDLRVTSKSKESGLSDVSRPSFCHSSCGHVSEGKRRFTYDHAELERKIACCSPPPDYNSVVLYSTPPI
# Sequence of SRC (human) (P12931 whole entry, looked up): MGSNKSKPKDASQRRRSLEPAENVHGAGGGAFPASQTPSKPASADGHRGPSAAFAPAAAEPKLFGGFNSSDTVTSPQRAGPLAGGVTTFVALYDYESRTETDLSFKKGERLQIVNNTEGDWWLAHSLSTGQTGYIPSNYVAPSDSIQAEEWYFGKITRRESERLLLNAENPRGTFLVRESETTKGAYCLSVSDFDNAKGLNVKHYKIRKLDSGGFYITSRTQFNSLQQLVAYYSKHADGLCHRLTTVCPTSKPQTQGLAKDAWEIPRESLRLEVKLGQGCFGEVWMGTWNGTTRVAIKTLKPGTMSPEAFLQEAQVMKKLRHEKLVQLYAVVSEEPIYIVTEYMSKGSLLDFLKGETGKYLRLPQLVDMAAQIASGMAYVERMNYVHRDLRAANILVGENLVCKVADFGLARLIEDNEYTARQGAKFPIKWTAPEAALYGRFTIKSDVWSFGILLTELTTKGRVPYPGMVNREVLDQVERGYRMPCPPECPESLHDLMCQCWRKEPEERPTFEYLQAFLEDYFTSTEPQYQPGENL
# Sequence of CLK2 (human) (P49760 whole entry, looked up): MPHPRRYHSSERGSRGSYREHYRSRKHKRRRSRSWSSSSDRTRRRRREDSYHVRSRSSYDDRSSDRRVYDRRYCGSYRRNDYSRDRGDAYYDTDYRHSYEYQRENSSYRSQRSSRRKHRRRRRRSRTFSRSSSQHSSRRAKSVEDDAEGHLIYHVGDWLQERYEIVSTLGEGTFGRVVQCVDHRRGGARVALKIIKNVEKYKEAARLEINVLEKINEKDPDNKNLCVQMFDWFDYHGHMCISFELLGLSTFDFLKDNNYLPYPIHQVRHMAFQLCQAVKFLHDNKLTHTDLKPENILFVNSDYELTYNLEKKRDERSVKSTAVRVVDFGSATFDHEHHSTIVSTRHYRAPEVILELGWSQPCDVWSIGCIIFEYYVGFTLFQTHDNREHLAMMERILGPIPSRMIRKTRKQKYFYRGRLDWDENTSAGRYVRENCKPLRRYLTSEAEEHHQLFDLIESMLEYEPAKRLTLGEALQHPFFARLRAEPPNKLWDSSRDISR
# Sequence of AURKB (human) (Q96GD4 whole entry, looked up): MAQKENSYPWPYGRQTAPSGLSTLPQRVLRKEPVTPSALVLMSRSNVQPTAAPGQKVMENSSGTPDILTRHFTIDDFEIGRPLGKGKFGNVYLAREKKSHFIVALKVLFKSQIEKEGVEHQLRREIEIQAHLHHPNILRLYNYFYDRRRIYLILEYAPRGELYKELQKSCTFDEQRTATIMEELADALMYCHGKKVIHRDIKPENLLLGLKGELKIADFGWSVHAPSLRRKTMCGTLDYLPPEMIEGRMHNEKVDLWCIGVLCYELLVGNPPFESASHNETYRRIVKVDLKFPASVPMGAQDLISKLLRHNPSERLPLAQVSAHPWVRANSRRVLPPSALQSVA
smiles,measurement,setting,value
CCS(=O)(=O)Nc1ccc2c(c1)[C@H](/C(=N/c1ccc(CN3CCCCC3)cc1)c1ccccc1)C(=O)N2,"kinase still bound, per cent of control",[1],0.1%
same,"kinase still bound, per cent of control",[2],0%
same,"kinase still bound, per cent of control",[3],0%
same,"kinase still bound, per cent of control",[4],0%
same,"kinase still bound, per cent of control",[5],1.4%
same,"kinase still bound, per cent of control",[6],0%
same,"kinase still bound, per cent of control",[7],0.5%
same,"kinase still bound, per cent of control",[8],0%
same,"kinase still bound, per cent of control",[9],no effect (inactive)
same,"kinase still bound, per cent of control",[10],no effect (inactive)
same,"kinase still bound, per cent of control",[11],no effect (inactive)
same,"kinase still bound, per cent of control",[12],no effect (inactive)
same,"kinase still bound, per cent of control",[13],0%
same,"kinase still bound, per cent of control",[14],1.5%
same,"kinase still bound, per cent of control",[15],0%
same,"kinase still bound, per cent of control",[16],0%
same,"kinase still bound, per cent of control",[17],0.1%
same,"kinase still bound, per cent of control",[18],0%
same,"kinase still bound, per cent of control",[19],0.5%
same,"kinase still bound, per cent of control",[20],0.85%
same,"kinase still bound, per cent of control",[21],0%
same,"kinase still bound, per cent of control",[22],0.1%
same,"kinase still bound, per cent of control",[23],0.3%
same,"kinase still bound, per cent of control",[24],20.7%
same,"kinase still bound, per cent of control",[25],0%
same,"kinase still bound, per cent of control",[26],0.8%
same,"kinase still bound, per cent of control",[27],3%
same,"kinase still bound, per cent of control",[28],0%
same,"kinase still bound, per cent of control",[29],0%
same,"kinase still bound, per cent of control",[30],0%
same,"kinase still bound, per cent of control",[31],0.8%
same,"kinase still bound, per cent of control",[32],0%
same,"kinase still bound, per cent of control",[33],0%
same,"kinase still bound, per cent of control",[34],1%
same,"kinase still bound, per cent of control",[35],0%
same,"kinase still bound, per cent of control",[36],0%
same,"kinase still bound, per cent of control",[37],10.8%
same,"kinase still bound, per cent of control",[38],0.75%
same,"kinase still bound, per cent of control",[39],1%
same,"kinase still bound, per cent of control",[40],0%
same,"kinase still bound, per cent of control",[41],0%
